According to ChEMBL document CHEMBL5230106, “The wide-spectrum antimicrobial effect of novel N-alkyl monoquaternary ammonium salts and their mixtures; the QSAR study against bacteria” (Eur J Med Chem, 2020):
Activity calls are given as the source filed them. No cut-off for these calls is given here.

Key:
Clostridioides difficile = test: Antibacterial activity against Clostridium difficile at 0.5 % measured after 8 mins by broth microdilution analysis; assay type: functional, organism-based
Penicillium chrysogenum = test: Antifungal activity against Penicillium chrysogenum EXF-1818 assessed as inhibition of fungal growth at 100 uM measured after 72 hrs; assay type: functional, organism-based
Fusarium dimerum = test: Antifungal activity against Fusarium dimerum EXF-8427 assessed as inhibition of fungal growth at 100 uM measured after 72 hrs; assay type: functional, organism-based
Aspergillus niger = test: Antifungal activity against Aspergillus niger EXF-10185 assessed as inhibition of fungal growth at 100 uM measured after 72 hrs; assay type: functional, organism-based
Aspergillus versicolor = test: Antifungal activity against Aspergillus versicolor EXF-8692 assessed as inhibition of fungal growth at 100 uM measured after 72 hrs; assay type: functional, organism-based
CHO-K1 = test: Cytotoxicity against CHO-K1 cells assessed as reduction in cell viability incubated for 24 hrs by MTT assay; assay type: toxicity, cell-based, Cricetulus griseus; conditions: chinese hamster, cho-k1, 24 h
Human alphaherpesvirus 3 = test: Antiviral activity against Varicella zoster-virus assessed as reduction factor at 0.005 % measured for 5 mins by crystal violet staining based microscopic analysis; assay type: functional

Row | Compound | Activity (CHO-K1) | fold change (FC) (Human alphaherpesvirus 3) | further results
1 | CCCCCCCCCCCC[N+](C)(C)CCCCCCCC | – | – | Activity (Clostridioides difficile): Active; Activity (Penicillium chrysogenum): Active; Activity (Fusarium dimerum): Active; Activity (Aspergillus niger): Active; Activity (Aspergillus versicolor): Active
2 | CCCCCCCCCCCCCC[N+]1(CCO)CCOCC1.[Br-] | Toxic | – | –
3 | CCCCCCCCCCCCCCCC[N+]1(CCO)CCOCC1.[Br-] | Toxic | – | –
4 | CCCCCCCCCCCCCCCC[n+]1cccc(OC)c1.[Br-] | – | 4.68 | –
5 | CCCCCCCCCCCC[N+]1(CCO)CCOCC1.[Br-] | Toxic | – | Activity (Clostridioides difficile): Active
6 | CCCCCCCC[N+](C)(CCCCCCCC)Cc1ccccc1.[Br-] | – | 3.84 | –
7 | CCCCCCCCCCCCCCCC[N+](C)(C)CCCCCCCC.[Br-] | – | 3.83 | –
